For experiment [1], the system named is HL-60. Nature of the experiment: Cytotoxicity against Homo sapiens (human) HL60 cells assessed as growth inhibition after 48 hr by MTT assay. The experiment is classed as functional, cell-based. The settings on record: HL-60, 48 h.
In experiment [2] the test system is Staphylococcus aureus. Nature of the experiment: Antibacterial activity against Staphylococcus aureus 1199B overexpressing NorA assessed as reduction of ciprofloxacin MIC at MEC after 18 hr by broth checkerboard method relative to control. The experiment is classed as functional.
Experiment [3] concerns Staphylococcus aureus. Nature of the experiment: Antibacterial activity against Staphylococcus aureus 1199B overexpressing NorA assessed as growth inhibition after 18 hr by broth checkerboard method. Type of experiment: functional. Particulars: read-out: MEC.
The test system of experiment [4] is Radical scavenging activity. The experiment can be described thus: Antioxidant activity assessed as DPPH radical scavenging activity after 20 min by microplate ELISA reader analysis. Type of experiment: functional.
For experiment [5], the system named is Rattus norvegicus. Nature of the experiment: Anti-inflammatory activity in Wistar Rattus norvegicus (rat) assessed as inhibition of carrageenan-induced paw edema at 100 mg/kg, po administered 45 min prior to carrageenan-challenge measured 45 min to 4 hr post carrageenan-challenge relative to control. The experiment is classed as functional.
The subject of experiment [6] is HeLa. The experiment can be described thus: Cytotoxicity against Homo sapiens (human) HeLa cells assessed as growth inhibition after 48 hr by MTT assay. The experiment is classed as functional, cell-based. On the technique in general: Tetrazolium assays rely on reduction of a dye to a coloured formazan, in cell work by metabolically active cells.
The test system of experiment [7] is MOLT-4. Nature of the experiment: Cytotoxicity against Homo sapiens (human) MOLT4 cells assessed as growth inhibition after 48 hr by MTT assay. The experiment is classed as functional, cell-based. The settings on record: MOLT-4, 48 h.
The subject of experiment [8] is PC-3. The experiment can be described thus: Cytotoxicity against Homo sapiens (human) PC3 cells assessed as growth inhibition after 48 hr by MTT assay. The experiment is classed as functional, cell-based. Particulars: PC-3, 48 h.

Active and inactive are the calls of the source. The rule behind the calls is not given here.

By IC50 is commonly meant the concentration that gives 50% inhibition.

Consider `O=C(/C=C/c1ccc(Br)cc1)c1ccc[nH]1`, for which the half-inhibitory concentration (IC50) in experiment [1] was 32 µM; in experiment [6], more than 100 µM; in experiment [7], 49 µM; in experiment [8] it was 44 µM. In experiment [2], the “fold change (FC)” value amounted to 0. Besides, the minimal effective concentration in experiment [3] was more than 50 µg/mL. The result in experiment [4] was inactive. The inhibition entry in experiment [5] was “inactive”.

Turning to `O=C(/C=C/c1cc([N+](=O)[O-])ccc1Cl)c1ccco1`, the concentration for half-maximal inhibition (IC50) in experiment [1] is 58 µM; in experiment [6], more than 100 µM; in experiment [7], 72 µM; in experiment [8], 62 µM. The “fold change (FC)” value in experiment [2] is 0. In experiment [3], the minimal effective concentration is more than 50 µg/mL. Further, the outcome in experiment [4] was inactive. The inhibition result in experiment [5] is “inactive”.

Consider `O=C(/C=C/c1ccccc1)c1ccc[nH]1`, for which the concentration for half-maximal inhibition (IC50) in experiment [1], in experiment [6], in experiment [7] and in experiment [8] was more than 100 µM throughout. Further, in experiment [2], the “fold change (FC)” value is reported as 0. In addition, the minimal effective concentration in experiment [3] is more than 50 µg/mL. Moreover, the outcome in experiment [4] was inactive. For the same compound, the inhibition result in experiment [5] was “inactive”.

Regarding `O=C(/C=C/c1ccccc1)c1ccco1`, the IC50 is 100 µM in experiment [1], more than 100 µM in experiment [6], more than 100 µM in experiment [7] and more than 100 µM in experiment [8]. Moreover, in experiment [2], the “fold change (FC)” value is on record as 0. Besides, the minimal effective concentration in experiment [3] was more than 50 µg/mL. Further, the result in experiment [4] was inactive. For the same compound, in experiment [5], the inhibition result is “inactive”.

`O=C(/C=C/c1ccc(Cl)cc1Cl)c1ccc[nH]1`: the half-inhibitory concentration (IC50) in experiment [1] came to 22 µM; in experiment [6], 26 µM; in experiment [7], 13 µM; in experiment [8], 22 µM. For the same compound, in experiment [2], the “fold change (FC)” value is on record as 0. Also, in experiment [3], the minimal effective concentration was more than 50 µg/mL. The result in experiment [4] was inactive. Also, the inhibition result in experiment [5] is “inactive”.

In the case of `CN(C)c1ccc(/C=C/C(=O)c2ccco2)cc1`, the 50% inhibitory concentration (IC50) in experiment [1] came out at 12 µM; in experiment [6] it was 20 µM; in experiment [7], 12 µM; in experiment [8] it was 13 µM. Further, the “fold change (FC)” value in experiment [2] is given as 4. Moreover, in experiment [3], the minimal effective concentration amounted to 12.5 µg/mL. In addition, in experiment [4], the result was inactive. The inhibition result in experiment [5] is “inactive”.

For `O=C(/C=C/c1cccc([N+](=O)[O-])c1)c1ccc[nH]1`, the concentration for half-maximal inhibition (IC50) in experiment [1] is 20 µM; in experiment [6] it was 32 µM; in experiment [7] it was 22 µM; in experiment [8] it was 23 µM. Further, the “fold change (FC)” value in experiment [2] is recorded as 0. Also, in experiment [3], the minimal effective concentration is more than 50 µg/mL. Moreover, the outcome in experiment [4] was inactive. Further, the inhibition entry in experiment [5] is “inactive”.

As for `O=C(/C=C/c1ccc([N+](=O)[O-])cc1)c1ccc[nH]1`, the IC50 in experiment [1] was 14 µM; in experiment [6], 26 µM; in experiment [7], 15 µM; in experiment [8], 13 µM. Besides, in experiment [2], the “fold change (FC)” value amounted to 0. The minimal effective concentration in experiment [3] was more than 50 µg/mL. For the same compound, the result in experiment [4] was inactive. For the same compound, the inhibition entry in experiment [5] was “inactive”.

In the case of `O=C(/C=C/c1cc([N+](=O)[O-])ccc1Cl)c1ccc[nH]1`, the IC50 in experiment [1] was 38 µM; in experiment [6] it was 68 µM; in experiment [7] it was 42 µM; in experiment [8], 55 µM. For the same compound, in experiment [2], the “fold change (FC)” value stood at 0. Besides, the minimal effective concentration in experiment [3] was more than 50 µg/mL. The outcome in experiment [4] was inactive. In experiment [5], the inhibition result is “inactive”.

Consider `COc1cccc(/C=C/C(=O)c2ccc[nH]2)c1`, for which the half-inhibitory concentration (IC50) in experiment [1] came out at 16 µM; in experiment [6], 30 µM; in experiment [7], 28 µM; in experiment [8], 24 µM. Further, the “fold change (FC)” value in experiment [2] is reported as 0. Moreover, in experiment [3], the minimal effective concentration was more than 50 µg/mL. Also, the outcome in experiment [4] was inactive. Also, the inhibition result in experiment [5] is “inactive”.

On to `O=C(/C=C/c1cccc([N+](=O)[O-])c1)c1ccco1`, for which the IC50 in experiment [1] came to 14 µM; in experiment [6], 22 µM; in experiment [7] it was 18 µM; in experiment [8], 14 µM. The “fold change (FC)” value in experiment [2] is reported as 0. In addition, in experiment [3], the minimal effective concentration is more than 50 µg/mL. For the same compound, the result in experiment [4] was inactive. The inhibition entry in experiment [5] was “inactive”.

Values taken from ChEMBL document CHEMBL3044639, “Synthesis and biologic activities of some novel heterocyclic chalcone derivatives” (Med Chem Res, 2013).
